Reference: ChEMBL document CHEMBL1149598, “Synthesis of neutral and cationic tripyridylporphyrin-D-galactose conjugates and the photoinactivation of HSV-1” (Bioorg Med Chem, 2007)

Assays:
[1] = Photostability assessed after irradiation with 50 mW/cm^2 white light for 1 min; format: ADME
[2] = Photostability assessed after irradiation with 50 mW/cm^2 white light for 3 mins; format: ADME; conditions: 0.05 h
[3] = Photostability assessed after irradiation with 50 mW/cm^2 white light for 5 mins; format: ADME
[4] = Photostability assessed after irradiation with 50 mW/cm^2 white light for 10 mins; format: ADME
[5] = Photostability assessed after irradiation with 50 mW/cm^2 white light for 15 mins; format: ADME; conditions: 0.25 h
[6] = (§1) Phototoxicity against 50 mW/cm^2 white light irradiated Vero cells assessed as viable cells pretreated at 0.01 uM after 48 hrs by MTT assay; format: cell-based; conditions: chlorocebus sabaeus, Vero cells; read-out: Activity
[7] = (§2) Phototoxicity against 50 mW/cm^2 white light irradiated Vero cells assessed as viable cells pretreated at 0.05 uM after 48 hrs by MTT assay; format: cell-based; conditions: chlorocebus sabaeus, Vero cells; read-out: Activity
[8] = (§3) Phototoxicity against 50 mW/cm^2 white light irradiated Vero cells assessed as viable cells pretreated at 0.1 uM after 48 hrs by MTT assay; format: cell-based; conditions: chlorocebus sabaeus, Vero cells; read-out: Activity
[9] = (§4) Phototoxicity against 50 mW/cm^2 white light irradiated Vero cells assessed as viable cells assessed as viable cells pretreated at 0.5 uM after 48 hrs by MTT assay; format: cell-based; conditions: chlorocebus sabaeus, Vero cells; read-out: Activity
[10] = (§5) Phototoxicity against 50 mW/cm^2 white light irradiated Vero cells assessed as viable cells pretreated at 1.0 uM after 48 hrs by MTT assay; format: cell-based; conditions: chlorocebus sabaeus, Vero cells; read-out: Activity
[11] = (§6) Phototoxicity against 50 mW/cm^2 white light irradiated Vero cells assessed as viable cells pretreated at 2.5 uM after 48 hrs by MTT assay; format: cell-based; conditions: chlorocebus sabaeus, Vero cells; read-out: Activity
Human alphaherpesvirus 1 [12] = experiment: Virucidal activity against HSV1 at 0.02 uM; format: functional; conditions: for inhibition at 0.02 µM: Human alphaherpesvirus 1
Human alphaherpesvirus 1 [13] = experiment: (§7) Virucidal effect against HSV1 pretreated at 0.02 uM after 5 mins of irradiation with 50 mW/cm^2 white light; format: functional; conditions: for inhibition at 0.02 µM: Human alphaherpesvirus 1, light or radiation study
Human alphaherpesvirus 1 [14] = experiment: as §7; format: functional; conditions: for inhibition at 0.02 µM: Human alphaherpesvirus 1, light or radiation study; remark: listed apart in the source
Human alphaherpesvirus 1 [15] = experiment: Inhibition of HSV1 infected Vero cells treated at 0.02 uM assessed virus yield under dark condition; format: functional; conditions: Human alphaherpesvirus 1, Vero
Human alphaherpesvirus 1 [16] = experiment: Inhibition of HSV1 infected Vero cells treated at 0.02 uM assessed virus yield after 2 hrs under dark condition; format: functional; conditions: Human alphaherpesvirus 1, Vero
Human alphaherpesvirus 1 [17] = experiment: Inhibition of HSV1 infected Vero cells treated at 0.02 uM assessed virus yield after 4 hrs under dark condition; format: functional; conditions: Human alphaherpesvirus 1, Vero
Human alphaherpesvirus 1 [18] = experiment: Inhibition of HSV1 infected Vero cells treated at 0.02 uM assessed virus yield after 16 hrs under dark condition; format: functional; conditions: Human alphaherpesvirus 1, Vero
Human alphaherpesvirus 1 [19] = experiment: Inhibition of HSV1 infected Vero cells treated at 0.02 uM assessed virus yield irradiated with 50 mW/ cm^2 white light for 15 mins; format: functional; conditions: Human alphaherpesvirus 1, Vero, light or radiation study, 0.25 h
Human alphaherpesvirus 1 [20] = experiment: Inhibition of HSV1 infected Vero cells treated at 0.02 uM assessed virus yield after 2 hrs of irradiated with 50 mW/ cm^2 white light for 15 mins; format: functional; conditions: Human alphaherpesvirus 1, Vero, light or radiation study
Human alphaherpesvirus 1 [21] = experiment: Inhibition of HSV1 infected Vero cells treated at 0.02 uM assessed virus yield after 4 hrs of irradiated with 50 mW/ cm^2 white light for 15 mins; format: functional; conditions: Human alphaherpesvirus 1, Vero, light or radiation study
Human alphaherpesvirus 1 [22] = experiment: Inhibition of HSV1 infected Vero cells treated at 0.02 uM assessed virus yield after 16 hrs of irradiated with 50 mW/ cm^2 white light for 15 mins; format: functional; conditions: Human alphaherpesvirus 1, Vero, light or radiation study
Vero [23] = experiment: as §1; format: cell-based; conditions: chlorocebus sabaeus, vero, 48 h, 0.01 µM
Vero [24] = experiment: as §2; format: cell-based; conditions: chlorocebus sabaeus, vero, 48 h, 0.05 µM
Vero [25] = experiment: as §3; format: cell-based; conditions: chlorocebus sabaeus, vero, 48 h, 0.1 µM
Vero [26] = experiment: as §4; format: cell-based; conditions: chlorocebus sabaeus, vero, 48 h, 0.5 µM
Vero [27] = experiment: as §5; format: cell-based; conditions: chlorocebus sabaeus, vero, 48 h, 1 µM
Vero [28] = experiment: as §6; format: cell-based; conditions: chlorocebus sabaeus, vero, 48 h, 2.5 µM

Activity [1] [%]	Activity [2] [%]	Activity [3] [%]	Activity [4] [%]	Activity [5] [%]	SMILES	viability at 48 h, 0.01 µM [6] [%]	viability at 48 h, 0.05 µM [7] [%]	viability at 48 h, 0.1 µM [8] [%]	viability at 48 h, 0.5 µM [9] [%]	viability at 48 h, 1 µM [10] [%]	viability at 48 h, 2.5 µM [11] [%]	inhibition at 0.02 µM (Human alphaherpesvirus 1 [12]) [%]	inhibition at 0.02 µM (Human alphaherpesvirus 1 [13]) [%]	inhibition at 0.02 µM (Human alphaherpesvirus 1 [14]) [%]	other results
99	99	96	92	87	O=C(O)c1ccc(-c2c3nc(c(-c4ccncc4)c4ccc([nH]4)c(-c4ccncc4)c4nc(c(-c5ccncc5)c5ccc2[nH]5)C=C4)C=C3)cc1 [PORPHIRIN]	105	95.7	90.6	76.6	39.7	11.4	8.9	52.9	90.5	–
100	98	97	88	83	O=C(OC[C@H]1OC(O)[C@H](O)[C@@H](O)[C@H]1O)c1ccc(-c2c3nc(c(-c4ccncc4)c4ccc([nH]4)c(-c4ccncc4)c4nc(c(-c5ccncc5)c5ccc2[nH]5)C=C4)C=C3)cc1 (some centres undefined)	108	98.4	92.3	55.5	27.2	4.4	28.6	44.5	85.6	inhibition at 0.02 µM (Human alphaherpesvirus 1 [15]): 0%; inhibition at 0.02 µM (Human alphaherpesvirus 1 [16]): 0%; inhibition at 0.02 µM (Human alphaherpesvirus 1 [17]): 0%; inhibition at 0.02 µM (Human alphaherpesvirus 1 [18]): 45.8%; inhibition at 0.02 µM (Human alphaherpesvirus 1 [19]): 71.1%; inhibition at 0.02 µM (Human alphaherpesvirus 1 [20]): 79.2%; inhibition at 0.02 µM (Human alphaherpesvirus 1 [21]): 93.6%; inhibition at 0.02 µM (Human alphaherpesvirus 1 [22]): 95.7%
98	98	98	94	93	CC1(C)O[C@H]2[C@@H](O1)[C@@H](COC(=O)c1ccc(-c3c4nc(c(-c5ccncc5)c5ccc([nH]5)c(-c5ccncc5)c5nc(c(-c6ccncc6)c6ccc3[nH]6)C=C5)C=C4)cc1)O[C@@H]1OC(C)(C)O[C@@H]12	–	–	–	–	–	–	–	–	–	Activity (Vero [23]): 100.8%; Activity (Vero [24]): 96.4%; Activity (Vero [25]): 93.9%; Activity (Vero [26]): 36.4%; Activity (Vero [27]): 14.4%; Activity (Vero [28]): 6.4%; Inhibition (Human alphaherpesvirus 1 [12]): 27.7%; Inhibition (Human alphaherpesvirus 1 [13]): 36.4%; Inhibition (Human alphaherpesvirus 1 [14]): 78.9%

SMILES	Activity [1] [%]	Activity [2] [%]	Activity [3] [%]	Activity [4] [%]	Activity [5] [%]	viability at 48 h, 0.01 µM [6] [%]	viability at 48 h, 0.05 µM [7] [%]	viability at 48 h, 0.1 µM [8] [%]	viability at 48 h, 0.5 µM [9] [%]	viability at 48 h, 1 µM [10] [%]	viability at 48 h, 2.5 µM [11] [%]	inhibition at 0.02 µM (Human alphaherpesvirus 1 [12]) [%]	inhibition at 0.02 µM (Human alphaherpesvirus 1 [13]) [%]	inhibition at 0.02 µM (Human alphaherpesvirus 1 [14]) [%]	other results
C[n+]1ccc(-c2c3nc(c(-c4cc[n+](C)cc4)c4ccc([nH]4)c(-c4cc[n+](C)cc4)c4nc(c(-c5ccc(C(=O)O)cc5)c5ccc2[nH]5)C=C4)C=C3)cc1.[I-].[I-].[I-]	98	98	98	98	97	110	98.6	96.7	89.2	76.6	56.3	16.7	50	63.3	–
